The test system of one series is Jeko-1. In words: CTG assay of payloads, Jeko-1 cells. Format: cell-based, human. To be noted: Homo sapiens, JeKo-1, 72 h, CellTiter-Glo. An excerpt: (§1) The CTG assay is a method of determining the number of viable cells in culture based on quantitation of the ATP present, an indicator of metabolically active cells. The cell assay requires the addition of a single reagent, Cell Titer Glo, in which cells are lysed and generation of a luminescent signal is produced. The luminescent signal is proportional to the amount of ATP present. The amount of ATP is directly proportional to the number of cells present in culture. For this assay, cells were ensured to be in log-phase for either Jeko-1 or MDA-MB-468. Cells were transferred to 96 wells and treated with compounds in three-fold serial dilution starting from […] (10 points dilution), for 72 h. Cell viability was analyzed with CellTiter-Glo® Luminescent Cell Viability Assay (Promega) following manufactures' instruction. Percentage of viable cells in each compound concentration was determined by normalizing with the luminescence of vehicle control and plotted into percentage of viability versus dose response curve by nonlinear fit in GraphPad Prism software.
(In general: Cellular ATP, detected with luciferase, serves as a proxy for viable cell number.)

A short description of series [1]: Human liver microsome clearance (HLM CL). It is filed as in vitro ADME. Also on record: CLint scaled / half-life: dose or concentration left out as unconfirmed. As for the experimental part: Working solution was prepared by adding 5 μL of compound and control stock solution (10 mM in dimethyl sulfoxide, DMSO) to 495 μL of acetonitrile (ACN) (intermediate solution concentration: 100 μM, 99% CAN and 1% DMSO. The appropriate concentrations of microsome working solutions were prepared in 100 mM potassium phosphate buffer. After reaction plates containing mixtures of compound and microsomes were pre-incubated at 37° C. for 10 min, […] of 2 mM of NADPH and 2 mM of MgCl2 solution was added to start the reaction. The final concentrations of incubation medium were as follows: microsome—0.5 mg protein/mL, test compound/control […], NADPH—1 mM, MgCl2—1 mM, acetonitrile 0.99%, DMSO 0.01%. Incubations were performed at 37° C. for 60 min. Samples were taken out at T0, T5, T15, T30, T45 and T60, which was added intermediately to the ice-cold stop solution (acetonitrile with 200 ng/mL of to butamide and labetalol as internal standard) (125 μl), shaken for 10 min, centrifuged at 4000 rpm for 20 min at 4° C. Analytical plates were analyzed by LCMS.
(§2) Human liver microsome clearance assay assess metabolism by the cytochrome P450 system (phase I enzymes). These enzymes oxidize substrates by incorporating oxygen atoms into hydrocarbons, thus causing the introduction of hydroxyl groups, or N- O- and S-dealkylation of substrates and forming more polar products easier to be cleared. Human hepatocyte clearance assay measures more broadly the overall cellular metabolism of the test compound (phase I and phase II enzyme pathways). Phase II enzymes catalyze the conjugation reaction of xenobiotic metabolites and charged species, such as glutathione, sulfate, glycine, or glucuronic acid to form even more polar compounds for easier clearance.
In general terms: Liver microsomes are vesicles of endoplasmic reticulum, rich in cytochrome P450 enzymes.

Series [2] in a line: Human hepatocyte clearance (HHEP CL). It is filed as in vitro ADME. Also on record: CLint scaled / half-life: dose or concentration left out as unconfirmed. The settings on record: both sexes. The procedure: Suspensions of human hepatocytes (from 10 mixed gender human donors, final concentration 0.5×10^6 cell/mL) in Williams' E medium were incubated for 90 min with a test compound (0.90% acetonitrile and 0.10% DMSO, final concentration […]) and positive controls (7-Ethoxycoumarin, 7-Hydroxycoumarin, 0.90% acetonitrile and 0.10% DMSO, final concentration […]), with constant shaking at about 600 rpm at 37° C. in an incubator at 5% CO2 and 95% humidity. The total volume of incubation was 200 μl. A sample ([…]) was taken out at T0, 15, 30, 60 and 90 min, which was added intermediately to the ice-cold stop solution (acetonitrile with 200 ng/mL of to butamide and labetalol as internal standard) (125 μl), and vortexed at 500 rpm for 10 min, centrifuged at 3220×g for 20 min at 4° C. Analytical plates were sealed and stored at 4° C. until LCMS analysis. Viability of hepatocytes at pre-incubation was determined to be 84.5%.
as §2

A short description of series [3]: PAMPA (Parallel Artificial Membrane Permeability Assay). It is filed as physicochemical. Also on record: dose or concentration left out as unconfirmed. An excerpt:
PAMPA is a method which determines the permeability of substances from a donor compartment, through a lipid-infused artificial membrane into an acceptor compartment. See Ottaviani, G.; Martel, S.; Carrupt, P-A. “Parallel Artificial Membrane Permeability Assay: A New Membrane for the Fast Prediction of Passive Human Skin Permeability”, Journal of Medicinal Chemistry, 2006, 49 (13), 3948-3954). A multi-well microtitre plate is used for the donor and a membrane/acceptor compartment is placed on top; the whole assembly is commonly referred to as a “sandwich”. At the beginning of the test, the drug is added to the donor compartment, and the acceptor compartment is drug-free. After an incubation period which may include stirring, the sandwich is separated, and the amount of drug is measured in each compartment. Mass balance allows calculation of drug that remains in the membrane.
The PAMPA was performed by Pion Inc using the GIT-0 lipid and 5 mM donor solution in pH 5.0 and pH 7.4 PRISMA buffer (containing 0.05% DMSO). The higher PAMPA data has been associated with better bystander killing. (Ogitani Y.; Hagihara K.; Oitate, M.; Naito, H.; Agatsuma T. “Bystander killing effect of DS-8201a, a novel anti-human epidermal growth factor receptor 2 antibody-drug conjugate, in tumors with human epidermal growth factor receptor 2 heterogeneity” Cancer Science, 2016, 107 (7), 1039-1046).

The test system of a further series is MDA-MB-468. Nature of the series: CTG assay of payloads, MDA-MB-468 cells. Format: cell-based, human. The settings on record: Homo sapiens, MDA-MB-468; Table 1; 72 h, CellTiter-Glo.
Excerpt: as §1

Here are results for 15 compounds from patent US20260021193A1, “IMMUNOCONJUGATES AND METHODS” (Immunome, Inc., priority 2022, published 2026).

Like-named read-outs stand apart in the source and are kept apart here.

One may read the IC50 as the concentration at which inhibition is half-maximal. `CC[C@@]1(O)C(=O)OCc2c1cc1n(c2=O)Cc2c-1nc1cc(F)c(C)c3c1c2[C@H](CCO)CC3` (single isomer, unassigned) [Compound 12-58] came in with an IC50 in the series on Jeko-1 (Table 2) of 240 pM. In addition, the half-life in series [1] (human, microsomes) came out at 20.1 min; in series [2] (human, hepatocytes), 68.1 min. The Papp in series [3] (pH 5) worked out at 2.9 ×10⁻⁶ cm/s; in series [3] (pH 7.4) it was 3.8 ×10⁻⁶ cm/s.

`CC[C@@]1(O)C(=O)OCc2c1cc1n(c2=O)Cc2c-1nc1cc(F)c(C)c3c1c2[C@@](C)(CCO)CC3` (single isomer, unassigned) [Compound 14-71] had an IC50 in the series on Jeko-1 (Table 2) of 180 pM. In addition, the half-life came to 10.8 min in series [1] (human, microsomes) and 47 min in series [2] (human, hepatocytes). Further, the Papp in series [3] (pH 5) was found to be 25 ×10⁻⁶ cm/s; in series [3] (pH 7.4), 17.3 ×10⁻⁶ cm/s.

Regarding `CC[C@@]1(O)C(=O)OCc2c1cc1n(c2=O)Cc2c-1nc1cc(F)c(C)c3c1c2[C@@](C)(N(C)CCO)CC3.Cl` (single isomer, unassigned) [Compound 6-44, hydrochloride], the half-maximal inhibitory concentration (IC50) in the series on Jeko-1 (Table 1) turned out to be 24100 pM; in the series on MDA-MB-468, 198000 pM. Besides, the CLint scaled in series [1] (microsomes, Table 1, human liver microsome clearance, read-out: HLM Cl) is 51.7 mL/min/kg; in series [2] (Table 1, human hepatocytes intrinsic clearance, read-out: HHEP Cl), 48.3 mL/min/kg.

Compound `C=CC[C@@H]1CCc2c(C)c(F)cc3nc4c(c1c23)Cn1c-4cc2c(c1=O)COC(=O)[C@]2(O)CC` (single isomer, unassigned) [Compound 17-86] displayed an IC50 with Jeko-1 (Table 2) of 930 pM. Further, the half-life in series [1] (human, microsomes) was determined as 13 min; in series [2] (human, hepatocytes) it was 46 min.

Consider `CC[C@@]1(O)C(=O)OCc2c1cc1n(c2=O)Cc2c-1nc1cc(F)c(C)c3c1c2[C@@](C)(CCCO)CC3` (single isomer, unassigned) [Compound 15-76], for which the IC50 with Jeko-1 (Table 2) worked out at 270 pM. Besides, the half-life was found to be 5.2 min in series [1] (human, microsomes) and 40.8 min in series [2] (human, hepatocytes). In addition, the Papp was found to be 45.5 ×10⁻⁶ cm/s in series [3] (pH 5) and 33.2 ×10⁻⁶ cm/s in series [3] (pH 7.4).

`CC[C@@]1(O)C(=O)OCc2c1cc1n(c2=O)Cc2c-1nc1cc(F)c(C)c3c1c2[C@](C)(CCCO)CC3` (single isomer, unassigned) [Compound 15-75] gave an IC50 with Jeko-1 (Table 2) of 880 pM. The half-life was 22.4 min in series [1] (human, microsomes) and 76.5 min in series [2] (human, hepatocytes). The Papp in series [3] (pH 5) amounted to 16.5 ×10⁻⁶ cm/s; in series [3] (pH 7.4), 11.5 ×10⁻⁶ cm/s.

In the series with Jeko-1 (Table 2), `CC[C@@]1(O)C(=O)OCc2c1cc1n(c2=O)Cc2c-1nc1cc(F)c(C)c3c1c2[C@](C)(CCO)CC3` (single isomer, unassigned) [Compound 14-70] displayed an IC50 of 790 pM. For the same compound, the half-life worked out at 18.4 min in series [1] (human, microsomes) and 53.6 min in series [2] (human, hepatocytes). Further, the Papp in series [3] (pH 5) was 44.2 ×10⁻⁶ cm/s; in series [3] (pH 7.4), 28.5 ×10⁻⁶ cm/s.

With `CC[C@@]1(O)C(=O)OCc2c1cc1n(c2=O)Cc2c-1nc1cc(F)c(C)c3c1c2[C@H](CCCO)CC3` (single isomer, unassigned) [Compound 13-63], 440 pM corresponded to half-maximal inhibition in the series on Jeko-1 (Table 2) (IC50). The half-life was 27.1 min in series [1] (human, microsomes) and 141 min in series [2] (human, hepatocytes). In addition, the Papp in series [3] (pH 5) came to 34.7 ×10⁻⁶ cm/s; in series [3] (pH 7.4), 32.9 ×10⁻⁶ cm/s.

As for `CC[C@@]1(O)C(=O)OCc2c1cc1n(c2=O)Cc2c-1nc1cc(F)c(C)c3c1c2[C@@H](CCCO)CC3` (single isomer, unassigned) [Compound 13-64], inhibition with Jeko-1 (Table 2) was half-maximal at 280 pM (IC50). For the same compound, the half-life in series [1] (human, microsomes) worked out at 22 min; in series [2] (human, hepatocytes), 79.4 min. In addition, the Papp in series [3] (pH 5) is 14.6 ×10⁻⁶ cm/s; in series [3] (pH 7.4), 10.6 ×10⁻⁶ cm/s.

For `CC[C@@]1(O)C(=O)OCc2c1cc1n(c2=O)Cc2c-1nc1cc(F)c(C)c3c1c2C(CO)(CO)CC3` [Compound 2-20, (S)-9-ethyl-5-fluoro-9-hydroxy-1,1-bis(hydroxymethyl)-4-methyl-2,3,12,15-tetrahydrobenzo [de]pyrano[3′,4′:6,7]indolizino[1,2-b]quinoline-10,13(1H,9H)-dione], the figures for the IC50 with Jeko-1 (Table 1) and in the series on MDA-MB-468 were 40800 pM and 351000 pM, respectively. In addition, the CLint scaled is 46 mL/min/kg in series [1] (human, microsomes) and 24 mL/min/kg in series [2] (human, hepatocytes). In addition, the half-life was 27 min in series [1] (human, microsomes) and 161 min in series [2] (human, hepatocytes).

For `CC[C@@]1(O)C(=O)OCc2c1cc1n(c2=O)Cc2c-1nc1cc(F)c(C)c3c1c2[C@@](C)(N(C)CCO)CC3.Cl` (single isomer, unassigned) [Compound 6-44], the half-life was 24 min in series [1] (Table 1, human liver microsomes, read-out: HLM (T1/2)) and 80 min in series [2] (Table 1, human hepatocytes, read-out: HHEP (T1/2)). Also, the Papp amounted to 54.9 ×10⁻⁶ cm/s in series [3] (Table 1, pH 5.0, read-out: PAMPA Pe pH 5.0) and 8.3 ×10⁻⁶ cm/s in series [3] (Table 1, pH 7.4, read-out: PAMPA Pe pH 7.4).

In turn, `C=CC[C@H]1CCc2c(C)c(F)cc3nc4c(c1c23)Cn1c-4cc2c(c1=O)COC(=O)[C@]2(O)CC` (single isomer, unassigned) [Compound 17-87] yielded a concentration for half-maximal inhibition (IC50) with Jeko-1 (Table 2) of 580 pM. The half-life in series [1] (human, microsomes) was 5.4 min; in series [2] (human, hepatocytes), 31 min.

Turning to `CC[C@@]1(O)C(=O)OCc2c1cc1n(c2=O)Cc2c-1nc1cc(F)c(C)c3c1c2[C@@](C)(COCCO)CC3` (single isomer, unassigned) [Compound 16-83], the IC50 in the series on Jeko-1 (Table 2) is 1100 pM. Besides, the half-life in series [1] (human, microsomes) came out at 25.7 min; in series [2] (human, hepatocytes) it was 113 min. Further, the Papp in series [3] (pH 5) came to 47.7 ×10⁻⁶ cm/s; in series [3] (pH 7.4) it was 25.1 ×10⁻⁶ cm/s.

For the compound `CC[C@@]1(O)C(=O)OCc2c1cc1n(c2=O)Cc2c-1nc1cc(F)c(C)c3c1c2[C@@H](CCO)CC3` (single isomer, unassigned) [Compound 12-59], the midpoint of inhibition in the series on Jeko-1 (Table 2), the IC50, lay at 320 pM. The half-life is 20.1 min in series [1] (human, microsomes) and 64.3 min in series [2] (human, hepatocytes). The Papp in series [3] (pH 5) worked out at 46.9 ×10⁻⁶ cm/s; in series [3] (pH 7.4), 33.4 ×10⁻⁶ cm/s.

The compound `CC[C@@]1(O)C(=O)OCc2c1cc1n(c2=O)Cc2c-1nc1cc(F)c(C)c3c1c2[C@](C)(COCCO)CC3` (single isomer, unassigned) [Compound 16-82] displayed an IC50 with Jeko-1 (Table 2) of 640 pM. The half-life in series [1] (human, microsomes) was determined as 5.6 min; in series [2] (human, hepatocytes), 45 min. The Papp is 54.8 ×10⁻⁶ cm/s in series [3] (pH 5) and 25.5 ×10⁻⁶ cm/s in series [3] (pH 7.4).
